Test results taken from paper PMC6751662, “Pharmacological and functional similarities of the human neuropeptide Y system in C. elegans challenges phylogenetic views on the FLP/NPR system” (Cell Communication and Signaling : CCS, 2019).

Legend:
Type in all cases: cell-based, C. elegans
NPR-4b = target: T1, NPR-4b (Caenorhabditis elegans, UniProt A0A078BTK0); experiment: IP accumulation assay, endogenous Gαq + mock, NPR-4b; details: 1 h, HBSS + 20 mM LiCl, HEK293 receptor + empty vector, HTRF IP-One, mean of >=3 independent experiments
T1 sequence (A0A078BTK0 1-376): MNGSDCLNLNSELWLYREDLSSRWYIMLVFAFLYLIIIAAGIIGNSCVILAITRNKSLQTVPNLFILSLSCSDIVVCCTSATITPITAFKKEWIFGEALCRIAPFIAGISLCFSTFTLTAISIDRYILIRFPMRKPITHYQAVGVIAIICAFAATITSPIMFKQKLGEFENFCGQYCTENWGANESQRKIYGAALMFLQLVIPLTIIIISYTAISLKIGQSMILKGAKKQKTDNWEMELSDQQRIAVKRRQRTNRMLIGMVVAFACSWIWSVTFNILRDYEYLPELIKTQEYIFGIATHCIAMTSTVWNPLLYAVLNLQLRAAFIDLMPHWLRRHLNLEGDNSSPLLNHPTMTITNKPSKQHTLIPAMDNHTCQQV
Protocol: (§1) For measuring IP accumulation, HEK293 cells grown to 70–80% confluency in 6-well plates were transiently co-transfected using Metafectene Pro (2.5 μl/μg DNA; Biontex) with plasmids containing receptor and/or mock (empty pcDNA3.1) (for endogenous Gq-coupling) using 4 μg total DNA in a ratio of 3:1 following the manufacturer’s instructions. For testing Gα16- and GαΔ6qi4myr-coupling, plasmids encoding the corresponding Gα protein were co-transfected instead of mock. Gα16 is naturally promiscuous and stimulates the phospholipase C (PLC) pathway leading to IP production, while the exchange of the C-terminal four amino acids of Gαq for the corresponding residues of Gαi1 in the chimeric GαΔ6qi4myr confers the ability to couple to Gi/o protein-preferring receptors but still stimulate PLC, thus specifically redirecting downstream cellular signaling. 16 h post transfection, the cells were seeded into white 384-well plates at a density of 20,000 cells/well. Media was removed 24 h later and the cells were incubated with the indicated concentration of peptides for 1 h in HBSS + 20 mM LiCl. IP accumulation was measured with the HTRF-based IP-One Gq kit (Cisbio) on a microplate reader (Tecan Spark).
(§2) For in vitro activation, data is presented as mean ± SEM of at least three independent experiments conducted in technical triplicate. […]

NPR-3 [1] = target: T2, NPR-3 (Caenorhabditis elegans, UniProt P90745); experiment: IP accumulation assay, co-transfected Gα16, NPR-3; details: 1 h, HBSS + 20 mM LiCl, HEK293 receptor + Gα16, HTRF IP-One, mean of >=3 independent experiments
T2 construct: expressed in transfected cells; host or cells: HEK293
T2 sequence (P90745 1-376): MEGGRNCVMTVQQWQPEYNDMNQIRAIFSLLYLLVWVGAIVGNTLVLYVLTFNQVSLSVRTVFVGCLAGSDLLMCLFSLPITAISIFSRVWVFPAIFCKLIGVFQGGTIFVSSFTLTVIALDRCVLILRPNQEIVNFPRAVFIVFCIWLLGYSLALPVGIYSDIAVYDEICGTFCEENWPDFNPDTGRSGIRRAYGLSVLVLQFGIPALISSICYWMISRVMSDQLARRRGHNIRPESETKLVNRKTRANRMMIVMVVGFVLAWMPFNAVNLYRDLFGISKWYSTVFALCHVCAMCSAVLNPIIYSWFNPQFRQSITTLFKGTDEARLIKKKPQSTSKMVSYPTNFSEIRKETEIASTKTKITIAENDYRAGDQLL
Protocol: as §1, §2

NPR-5b = target: T3, NPR-5b (Caenorhabditis elegans, UniProt Q6F3C9); experiment: cAMP reporter gene assay, Gs (no forskolin), NPR-5b; details: no forskolin, 4 h, transiently transfected HEK293, CRE-luciferase reporter, mean of >=3 independent experiments
T3 sequence (Q6F3C9 1-433): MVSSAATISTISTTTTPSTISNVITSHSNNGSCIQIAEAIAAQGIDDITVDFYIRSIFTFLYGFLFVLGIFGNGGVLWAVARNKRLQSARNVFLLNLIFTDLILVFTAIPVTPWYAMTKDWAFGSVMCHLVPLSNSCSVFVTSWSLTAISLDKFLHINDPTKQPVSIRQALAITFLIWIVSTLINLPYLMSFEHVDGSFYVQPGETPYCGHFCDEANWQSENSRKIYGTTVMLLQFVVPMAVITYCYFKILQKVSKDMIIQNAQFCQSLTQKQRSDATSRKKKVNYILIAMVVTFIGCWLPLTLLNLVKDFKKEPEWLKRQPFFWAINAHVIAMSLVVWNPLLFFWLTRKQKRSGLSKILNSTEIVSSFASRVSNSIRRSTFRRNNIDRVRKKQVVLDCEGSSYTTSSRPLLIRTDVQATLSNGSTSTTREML
Protocol: Activation of Gs and Gi/o was assessed with a cAMP reporter gene assay. HEK293 cells grown to 70–80% confluency in 6-well plates were transiently co-transfected with vectors encoding the receptor and the cAMP reporter gene plasmid pGL4.29 [luc2P/CRE/Hygro] (Promega; 4 μg total, 1:1 ratio) using Metafectene Pro (3 μl/μg DNA; Biontex) following the manufacturer’s instructions. 16 h post transfection, the cells were seeded into white 384-well plates at a density of 20,000 cells/well. On the next day, the medium was removed and the cells were stimulated with 20 μl of peptide solution (or forskolin as positive control) in serum-free DMEM for 4 h. For measuring Gi/o activity, the peptide solutions additionally contained 1 μM forskolin to elevate cellular cAMP levels. After incubation, the luciferase substrate OneGlo in lysis buffer (Promega) was added and the luminescence was measured in a microplate reader Tecan Spark (Tecan). Data were analyzed with GraphPad Prism 5.03 and are shown as fold of basal or fold of forskolin in case of Gαi/o activity.
For in vitro activation, data is presented as mean ± SEM of at least three independent experiments conducted in technical triplicate. […] For the C. elegans NPRs, we considered the strongest response elicited by any of the peptides downstream of a particular receptor as the receptor’s maximal signal. This may or may not be the biological maximum that can be reached by the ‘true’ endogenous agonist. For the human receptors, the response to the established endogenous agonist reflected the maximal signal.

NPR-3 [2] = target: T2, NPR-3; experiment: IP accumulation assay, endogenous Gαq + mock, NPR-3; details: 1 h, HBSS + 20 mM LiCl, HEK293 receptor + empty vector, HTRF IP-One, mean of >=3 independent experiments
Protocol: as §1, §2

[3] = 0.1 nM peptide (so in the source)

IP assay endog. Gαq + mock, NPR-4b (NPR-4b; [3]): 0.98 x-fold of basal
IP assay endog. Gαq + mock, NPR-4b (NPR-4b; 10 µM peptide): 0.99 x-fold of basal
IP assay endog. Gαq + Gα16, NPR-3 (NPR-3 [1]; [3]): 0.93 x-fold of basal
IP assay endog. Gαq + Gα16, NPR-3 (NPR-3 [1]; 10 µM peptide): 0.81 x-fold of basal
cAMP assay Gs, NPR-5b (NPR-5b; 0.1 µM peptide): 0.68 x-fold of basal
cAMP assay Gs, NPR-5b (NPR-5b; 10 µM peptide): 0.68 x-fold of basal
IP assay endog. Gαq + mock, NPR-3 (NPR-3 [2]; [3]): 0.92 x-fold of basal
IP assay endog. Gαq + mock, NPR-3 (NPR-3 [2]; 10 µM peptide): 1.07 x-fold of basal
Substance: APKPKFIRF-NH2 [FLP-5-1, C. elegans FMRFamide-like peptide, C-terminally amidated, synthesized by SPPS]
